The source of these data is ChEMBL document CHEMBL1141832, “A new discorhabdin from two sponge genera” (1999).

The test can be described thus: Antitumor activity against human NCI60 cells. Format: functional.

SMILES strings stand for the structures. ≈ marks a conversion by molar mass, not a printed value.

What is called GI50 is the concentration that inhibits growth by half. Low readings indicate greater sensitivity of the cells, high ones lower sensitivity of the cells. In turn, `O=C1C=C2S[C@H]3C[C@]2(C=C1Br)C1=C(N3)C(=O)c2[nH]cc3ccnc1c23` [DISCORHABDIN Q] returned a GI50 of 0.5 µg/mL (≈ 1.21 µM).
